{"source": "paper PMC9078399", "about": "“Discovery of N-cyclobutylaminoethoxyisoxazole derivatives as novel sigma-1 receptor ligands with neurite outgrowth efficacy in cells” (RSC Advances, 2018)", "key": {"σ1 receptor [1]": {"molecular_target": "T1, σ1 receptor (Cavia porcellus, UniProt Q60492)", "T1 construct": "σ1 receptor, [^3H]-(+)-pentazocine, Guinea pig brain homogenate; from tissue; host or cells: Guinea pig brain homogenate", "T1 sequence (Q60492 whole entry)": "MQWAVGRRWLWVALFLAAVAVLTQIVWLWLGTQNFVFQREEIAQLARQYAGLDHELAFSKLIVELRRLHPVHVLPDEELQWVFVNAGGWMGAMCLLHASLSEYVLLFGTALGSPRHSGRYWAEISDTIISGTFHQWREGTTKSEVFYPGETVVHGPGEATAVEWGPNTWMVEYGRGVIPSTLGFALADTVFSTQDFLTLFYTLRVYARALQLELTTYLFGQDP", "experiment": "Radioligand binding at σ1 receptor ([3H]-(+)-pentazocine, NIMH PDSP)", "design": "species or system Guinea pig", "conditions": "ratio of Ki σ2 to Ki σ1", "source_text": "In this study, [^3H] pentazocine and [^3H]DTG (6) were used as the radioligands at σ1 and σ2 receptors. Firstly, we examined the effects of changing the substituents on the benzene ring. […] Mono-halogen substitution on the benzene ring exemplified by compounds 17–20 generally retained affinity for σ1 receptor compared with compound 7. […] The derivatives 21–25 also maintained similar high affinities for the σ1 receptor upon incorporation of two halogen atoms on the benzene ring. However, this is also accompanied with higher binding affinity to the σ2 receptor. […]. Next, we examined the effects of removing the methyl group on the basic nitrogen atom. […] […]. […] The results for the secondary amines 28 and 29 indicate that the hydrogen bond donor on basic nitrogen atom was beneficial for increased binding affinity to the σ1 receptor.\nRadioligand competition studies were carried out by the National Institute of Mental Health's Psychoactive Drug Screening Program, Contract #HHSN-271-2008-00025-C (NIMH PDSP). The general procedures are listed as follows:\nAll the test compounds solution (1 mg mL^−1) were prepared by dissolving in DMSO or buffer solvent (50 mM Tris–HCl, pH = 8.0). The filter-mats were presoaked in 0.5% aqueous polyethyleneimine solution for 2 h at rt before use. All binding experiments were carried out in poly-L-lysine-coated 96-well plate and the final test concentration (50 μM, 5 μM, 1.5 μM, 500 nM, 150 nM, 50 nM, 15 nM, 5 nM, 1.5 nM, 0.5 nM, 0.05 nM) were prepared by addition of Tris–HCl solution (50 mM, pH = 8.0). The following specific radioligands and tissue source were used: (a) σ1 receptor, [^3H]-(+)-pentazocine, Guinea pig brain homogenate; (b) σ2 receptor, [^3H]-DTG, PC-12 cells. 100 μL of corresponding radioligand solution, 100 μL test compound solution and 50 μL of the respective receptor preparation into each well of the plate (total volume 250 μL). During the incubation, the plates were shaken at a speed of 500–600 rpm at the specified temperature (σ1 receptor, 37 °C, 150 min; σ2 receptor, rt, 120 min). The incubation was followed by a rapid vacuum filtration through Whatman GF/B glass filters, and the filtrates were washed twice with 10 mL of cold buffer and transferred to the 6 mL scintillation vials. EcoScint scintillation fluid (4.0 mL) was added, and the radioactivity bound was measured using a Beckman LS 6500 liquid scintillation counter. All experiments were performed at least three times.\nFor experimental details please refer to the PDSP website http://pdsp.med.unc.edu/.[28]"}, "PC12 cells": {"test_system": "PC12 cells", "experiment": "NGF-induced neurite outgrowth in PC-12 cells", "type": "cell-based, rat", "conditions": "10 μM compound with NGF 2.5 ng mL−1, four days", "protocol": "PC-12 cells, from rat pheochromocytoma cell lines, were obtained from the American Type Culture Collection (ATCC, Manassas, VA, USA). Undifferentiated PC12 cells were cultured in DMEM complete medium with 10% heat-inactivated horse serum, 5% fetal bovine serum, 100 U mL^−1 penicillin, and 100 μg mL^−1 streptomycin and maintained at 37 °C in a humidified incubator supplemented with 5% CO2. To induce differentiation, PC12 cells were seeded at a density of 1 × 10^4 cells per mL on a poly-L-lysine-coated 96-well plate and cultured in complete medium containing 2.5 ng mL^−1 NGF or different tested compounds (10 μM) concomitant with 2.5 ng mL^−1 NGF administration. Four days after incubation, morphometric analysis was performed on digitized images of live cells taken under phase contrast illumination with an inverted microscope linked to a camera. Images of five fields per well were taken with an average of 20 cells per field. The number of differentiated cells was determined by counting cells that had at least one neurite with a length equal to the cell body diameter and was expressed as a percentage of the total cells in the field. The counting was performed in a blinded manner. All experiments were performed at least five times."}, "[2]": {"molecular_target": "NET: norepinephrine transporter (Homo sapiens, UniProt P23975)", "sequence (P23975 whole entry)": "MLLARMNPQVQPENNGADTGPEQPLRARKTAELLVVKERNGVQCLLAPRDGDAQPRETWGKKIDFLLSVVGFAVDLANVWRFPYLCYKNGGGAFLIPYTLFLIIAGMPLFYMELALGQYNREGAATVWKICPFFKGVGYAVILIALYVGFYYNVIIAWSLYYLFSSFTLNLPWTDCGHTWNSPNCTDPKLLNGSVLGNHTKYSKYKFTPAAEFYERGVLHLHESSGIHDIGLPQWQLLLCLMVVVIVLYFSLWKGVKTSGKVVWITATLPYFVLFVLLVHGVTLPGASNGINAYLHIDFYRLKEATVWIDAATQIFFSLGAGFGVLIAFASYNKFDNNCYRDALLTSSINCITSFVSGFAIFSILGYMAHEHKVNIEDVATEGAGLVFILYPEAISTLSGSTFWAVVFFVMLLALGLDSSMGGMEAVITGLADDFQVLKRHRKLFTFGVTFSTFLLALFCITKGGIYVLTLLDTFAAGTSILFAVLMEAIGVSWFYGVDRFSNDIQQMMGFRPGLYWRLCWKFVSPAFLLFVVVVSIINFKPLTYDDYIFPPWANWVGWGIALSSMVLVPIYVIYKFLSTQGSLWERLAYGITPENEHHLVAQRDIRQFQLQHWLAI", "design": "method as in PMID 27309376", "conditions": "[3H] nisoxetine; literature values; cited from earlier work"}, "[3]": {"molecular_target": "DAT: dopamine transporter (Homo sapiens, UniProt Q01959)", "sequence (Q01959 whole entry)": "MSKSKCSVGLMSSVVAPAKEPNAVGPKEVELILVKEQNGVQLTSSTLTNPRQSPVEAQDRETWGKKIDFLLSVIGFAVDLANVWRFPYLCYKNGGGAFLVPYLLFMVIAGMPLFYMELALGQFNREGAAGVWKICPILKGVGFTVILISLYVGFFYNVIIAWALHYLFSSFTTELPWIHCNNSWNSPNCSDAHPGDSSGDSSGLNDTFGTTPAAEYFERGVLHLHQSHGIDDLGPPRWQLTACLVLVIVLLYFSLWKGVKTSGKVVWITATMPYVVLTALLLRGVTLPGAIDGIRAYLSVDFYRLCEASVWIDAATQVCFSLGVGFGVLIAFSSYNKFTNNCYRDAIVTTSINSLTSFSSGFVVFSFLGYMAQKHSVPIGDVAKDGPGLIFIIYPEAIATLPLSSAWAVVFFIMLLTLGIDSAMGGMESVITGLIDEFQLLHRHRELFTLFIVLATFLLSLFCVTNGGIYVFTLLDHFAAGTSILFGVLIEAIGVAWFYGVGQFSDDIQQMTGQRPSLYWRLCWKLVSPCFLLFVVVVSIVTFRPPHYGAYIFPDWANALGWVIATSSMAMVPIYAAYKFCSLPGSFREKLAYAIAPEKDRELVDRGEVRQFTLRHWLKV", "design": "method as in PMID 27309376", "conditions": "[3H] WIN35428; literature values; cited from earlier work"}, "[4]": {"molecular_target": "SERT: serotonin transporter (Homo sapiens, UniProt P31645)", "sequence (P31645 whole entry)": "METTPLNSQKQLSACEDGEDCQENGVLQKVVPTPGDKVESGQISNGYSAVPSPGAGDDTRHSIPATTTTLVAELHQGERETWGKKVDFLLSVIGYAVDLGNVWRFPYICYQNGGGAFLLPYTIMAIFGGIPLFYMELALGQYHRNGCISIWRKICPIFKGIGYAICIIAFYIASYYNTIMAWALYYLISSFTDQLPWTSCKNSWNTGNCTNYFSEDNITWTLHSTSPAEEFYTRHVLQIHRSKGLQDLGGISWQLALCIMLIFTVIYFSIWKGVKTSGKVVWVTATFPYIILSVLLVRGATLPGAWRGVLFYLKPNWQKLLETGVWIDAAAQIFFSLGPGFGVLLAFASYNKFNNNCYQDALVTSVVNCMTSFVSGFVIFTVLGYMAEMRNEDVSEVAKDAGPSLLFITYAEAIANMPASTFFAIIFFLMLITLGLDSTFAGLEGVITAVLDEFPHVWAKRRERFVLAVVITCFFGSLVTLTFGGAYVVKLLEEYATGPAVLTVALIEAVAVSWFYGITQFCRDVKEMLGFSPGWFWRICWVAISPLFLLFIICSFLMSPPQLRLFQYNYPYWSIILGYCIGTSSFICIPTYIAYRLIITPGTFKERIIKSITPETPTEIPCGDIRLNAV", "design": "method as in PMID 27309376", "conditions": "[3H] citalopram; literature values; cited from earlier work"}, "σ1 receptor [5]": {"molecular_target": "T1, σ1 receptor", "design": "method as in PMID 27309376", "conditions": "[3H]-(+)-pentazocine; Guinea pig homogenate; compound 7 value from the literature; cited from earlier work"}, "σ1 receptor [6]": {"molecular_target": "σ1 receptor", "design": "method as in PMID 21278085, PMID 15170821, PMID 18647636, PMID 22935988, PMID 21967807", "conditions": "representative σ1 receptor ligands, Fig. 1; cited from earlier work"}, "σ2 receptor": {"molecular_target": "σ2 receptor", "design": "method as in PMID 21278085, PMID 15170821, PMID 18647636, PMID 22935988, PMID 21967807", "conditions": "representative σ1 receptor ligands, Fig. 1; cited from earlier work"}}}
{"smiles": "CN(CCOc1cc(COc2ccccc2)on1)C1CCC1", "note": "[Compound 7]", "values": [{"measurement": "Selectivity (Ki σ2/Ki σ1)", "setting": "σ1 receptor [1]", "value": 171}, {"measurement": "Effect on NGF-induced neurite outgrowth", "setting": "PC12 cells", "value": "synergistic neurite outgrowth effects at a level similar to that of the positive control RC-33"}, {"measurement": "Ki, NET", "setting": "[2]", "value": "NA (NA: not active, defined as <50% binding in the primary assay at 10 μM)"}, {"measurement": "Ki, DAT", "setting": "[3]", "value": "NA ^c (NA: not active, defined as <50% binding in the primary assay at 10 μM)"}, {"measurement": "Ki, SERT", "setting": "[4]", "value": "NA (NA: not active, defined as <50% binding in the primary assay at 10 μM)"}, {"measurement": "Ki", "setting": "σ1 receptor [5]", "value": "1.8 ± 0.2", "unit": "nM"}]}
{"smiles": "CC(CCN1CCCCC1)c1ccc(-c2ccccc2)cc1", "note": "(stereo not shown) [RC-33]", "values": [{"measurement": "Ki", "setting": "σ1 receptor [6]", "value": 0.7, "unit": "nM"}, {"measurement": "Ki", "setting": "σ2 receptor", "value": 103, "unit": "nM"}]}
{"smiles": "COc1ccc(CCN2CCN(CCCc3ccccc3)CC2)cc1OC", "note": "[SA4503]", "values": [{"measurement": "Ki", "setting": "σ1 receptor [6]", "value": 17, "unit": "nM"}, {"measurement": "Ki", "setting": "σ2 receptor", "value": 1800, "unit": "nM"}]}
